Data as given in article PMC6888133, “Identification and Characterization of a Fatty Acid- and Retinoid-Binding Protein Gene (Ar-far-1) from the Chrysanthemum Foliar Nematode, Aphelenchoides ritzemabosi” (International Journal of Molecular Sciences, 2019).

Biological target: T1, rAr-FAR-1 (Ar-FAR-1) (Aphelenchoides ritzemabosi, UniProt A0A2D0WIZ9)
T1 construct: full-length 181 aa ORF with signal peptide (18 aa, cleavage Ala18/Glu19); E. coli BL21(DE3)
T1 sequence (A0A2D0WIZ9 1-181): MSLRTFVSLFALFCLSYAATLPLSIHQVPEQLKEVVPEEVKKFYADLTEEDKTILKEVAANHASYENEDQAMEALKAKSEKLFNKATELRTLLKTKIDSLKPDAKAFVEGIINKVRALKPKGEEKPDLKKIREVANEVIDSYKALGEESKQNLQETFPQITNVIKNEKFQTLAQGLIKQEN
Test: fluorescence titration
Format: binding

Row | SMILES | Kd [µM]
1 | CN(C)c1cccc2c(S(=O)(=O)NCCCCCCCCCCC(=O)O)cccc12 [DAUDA, 11-(5-dimethylaminonaphthalene-1-sulfonylamino) undecanoic acid] | 0.0405
2 | CC1=C(/C=C/C(C)=C/C=C/C(C)=C/CO)C(C)(C)CCC1 [retinol] | 0.0679
